The values below are quoted from earlier work in patent US7273620B1, “Triggered release of liposomal drugs following mixing of cationic and anionic liposomes” (University of British Columbia, priority 2002, dated 2007).

The conditions of the data set: from LUV; depends on acyl chain length of ceramide anchor.

On to “1-O-(2′-(ω-methoxypolyethylene-glycol)succinoyl)-2-N-myristoylsphyngosine [PEG-CerC14]”, for which the “dissociation rate of PEG-Ceramide” value is 1.2 h.
